The source made the active and inactive calls. The calls are words filed in the database; no cut-off is given here.
Experiments:
[1] = system: NCI-H1975; experiment: Induction of late apoptosis in human NCI-H1975 cells at 50 to 400 nM incubated for 24 hrs by Annexin V-FITC/PI staining based flow cytometry; assay type: functional, cell-based; conditions: dose 50-400 nM
[2] = Toxicity in zebrafish embryo assessed as liver function at 1 uM with replacement of new growth solution daily by fluorescence microscopy (reference value: 100 +/- 8.89 %); assay type: tissue-based, Danio rerio; conditions: in vivo
[3] = system: NCI-H460; experiment: Cytotoxicity against human NCI-H460 cells assessed as inhibition of cell viability incubated for 48 hrs by MTT assay; assay type: functional, cell-based; conditions: NCI-H460, 48 h
[4] = system: BEAS-2B; experiment: Induction of apoptosis in human BEAS-2B cells at 50 to 400 nM incubated for 24 hrs by Annexin V-FITC/PI staining based flow cytometry; assay type: toxicity, cell-based; conditions: 0.4 µM, dose 50-400 nM
[5] = Developmental toxicity in zebrafish AB zygotes assessed as embryo malformation at 2 to 4 uM treated at 6 hrs post-fertilization measured at 24 to 72 hrs post-fertilization; design: species or system Danio rerio; conditions: in vivo, dose lower 2 µM, time lower 18 hrs, dose upper 4 µM, time upper 66 hrs
[6] = system: NCI-H1975; experiment: Induction of apoptosis in human NCI-H1975 cells at 50 to 1600 nM incubated for 24 hrs by Annexin V-FITC/PI staining based flow cytometry; assay type: functional, cell-based; conditions: dose 50-1600 nM
[7] = Renal toxicity in zebrafish assessed as FITC dye residue at 0.25 to 1 uM treated for 24 hrs followed by dye treatment measured after 6 hrs by fluorescence microscopy; design: species or system Danio rerio; conditions: in vivo, 30 h, dose 0.25-1 µM
[8] = Cytotoxicity against human BEAS-2B cells assessed as cell growth inhibition at 4.5 to 10 nM incubated for 48 hrs by MTT assay relative to control; assay type: toxicity, cell-based; conditions: dose 4.5-10 nM, read-out: Imax
[9] = Renal toxicity in zebrafish assessed as increase in Kim1 expression at 0.5 to 2 uM treated for 48 hrs by RT-qPCR analysis; design: species or system Danio rerio; conditions: in vivo, dose 0.5-2 µM
[10] = Renal toxicity in zebrafish assessed as increase in TNF-alpha expression at 0.5 to 2 uM treated for 48 hrs by RT-qPCR analysis; design: species or system Danio rerio; conditions: in vivo, dose 0.5-2 µM
[11] = Developmental toxicity in zebrafish AB zygotes assessed as lethal effect at 2 to 4 uM treated at 6 hrs post-fertilization measured at 72 hrs post-fertilization; design: species or system Danio rerio; conditions: in vivo, 66 h, dose 2-4 µM
[12] = system: BEAS-2B; experiment: Cytotoxicity against human BEAS-2B cells assessed as cell growth inhibition incubated for 48 hrs by MTT assay; assay type: toxicity, cell-based
[13] = system: NCI-H1975; experiment: Cytotoxicity against human NCI-H1975 cells assessed as cell growth inhibition incubated for 48 hrs by MTT assay; assay type: functional, cell-based

Compound	Activity [1]	Activity [2] [%]	IC50 [3] [µM]	Activity [4]	Activity [5]	Activity [6]	Activity [7]	Emax at 48 h [8] [%]	Activity [9]	Activity [10]	Activity [11]	inhibition (INH) [12]	inhibition [13]
CC(C)[C@]12O[C@H]1[C@@H]1O[C@]13[C@]1(O[C@H]1C[C@H]1C4=C(CC[C@@]13C)C(=O)OC4)[C@@H]2OC(=O)CCCCCCCC[n+]1ccc(/C=C/c2c[nH]c3ccccc23)cc1.[Br-]	Active	27.18	4.78	Non-Toxic	Toxic								
CC(C)[C@]12O[C@H]1[C@@H]1O[C@@]13[C@@]1(C)CCC4=C(COC4=O)[C@@H]1C[C@@H]1O[C@@]13C2=O [TRIPTONIDE]						Active	Toxic	~40	Toxic	Toxic	Toxic	Dose-Dependent Effect	Dose-Dependent Effect

Reference: ChEMBL document CHEMBL5537157, “Selective Antitumor Effect and Lower Toxicity of Mitochondrion-Targeting Derivatization of Triptolide” (J Med Chem, 2024)
